Measurements: patent publication US11000033B2, “Ketone or oxime compound, and herbicide” (NISSAN CHEMICAL CORPORATION, priority 2014, dated 2021)

Tests used:
Assay type in all cases: in vivo
soybean [1] = assay: Test Example 4: effect on crop by soil treatment (symbol d); details: application herbicide amount 320 g/ha
In short: (§1)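 Greenhouse culture at 25° C. to 30° C. followed sowing of seed in spots on sterilized diluvial soil with a soil cover close to 1.5 cm thick.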

wheat [2] = assay: Test Example 5: effect on crop by foliage application, plastic box (symbol e); details: 320 g/ha, 3 weeks after application
In short: (§2)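 Soil: sterilized diluvial. Container: plastic box, 21 × 13 cm, 7 cm deep. Sowing: spot-like, ~1.5 cm cover. Growth: greenhouse, 25° C. to 30° C.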

Alopecurus myosuroides [3] = assay: Test Example 5: herbicidal effect by foliage application, plastic box (symbol J); details: 320 g/ha, 3 weeks after application
In short: (§3)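 Seeds were sown in sterilized diluvial soil, covered with about 1.5 cm of soil and grown 14 days in a greenhouse at 25° C. to 30° C. An emulsifiable formulation diluted in water to a set rate was sprayed over foliage, and injury was scored 3 weeks later.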

Avena fatua = assay: Test Example 4: herbicidal effect by soil treatment (symbol I); details: application herbicide amount 320 g/ha
In short: (§4)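 Seeds were sown in sterilized diluvial soil, covered with about 1.5 cm of soil, and the soil surface was sprayed with a water-diluted emulsion of the compound at a predetermined rate. Plants grew in a greenhouse at 25° C. to 30° C.; effects were scored visually 3 weeks after application.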

Setaria viridis [4] = assay: Test Example 4: herbicidal effect by soil treatment (symbol G); details: application herbicide amount 320 g/ha
In short: as §4

Galium spurium [5] = assay: Test Example 5: herbicidal effect by foliage application, plastic box (symbol Q); details: 320 g/ha, 3 weeks after application
In short: as §3

corn = assay: Test Example 4: effect on crop by soil treatment (symbol c); details: application herbicide amount 320 g/ha
In short: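 Seeds were sown in spots on sterilized diluvial soil in a plastic box and covered with about 1.5 cm of soil. Plants were then grown in a greenhouse at 25° C. to 30° C.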

Setaria viridis [6] = assay: Test Example 5: herbicidal effect by foliage application, plastic box (symbol G); details: 320 g/ha, 3 weeks after application
In short: as §3

wheat [7] = assay: Test Example 4: effect on crop by soil treatment (symbol e); details: application herbicide amount 320 g/ha
In short: as §1

Stellaria media = assay: Test Example 4: herbicidal effect by soil treatment (symbol P); details: application herbicide amount 320 g/ha
In short: as §4

Abutilon theophrasti = assay: Test Example 4: herbicidal effect by soil treatment (symbol M); details: application herbicide amount 320 g/ha
In short: as §4

Amaranthus retroflexus [8] = assay: Test Example 5: herbicidal effect by foliage application, plastic box (symbol N); details: 320 g/ha, 3 weeks after application
In short: as §3

[9] = system: Echinochloa crus-galli var. crus-galli; assay: Test Example 5: herbicidal effect by foliage application, plastic box (symbol H); details: 320 g/ha, 3 weeks after application
In short: as §3

Amaranthus retroflexus [10] = assay: Test Example 4: herbicidal effect by soil treatment (symbol N); details: application herbicide amount 320 g/ha
In short: as §4

soybean [11] = assay: Test Example 5: effect on crop by foliage application, plastic box (symbol d); details: 320 g/ha, 3 weeks after application
In short: as §2

rice = assay: Test Example 4: effect on crop by soil treatment (symbol b); details: application herbicide amount 320 g/ha
In short: as §1

Scirpus juncoides = assay: Test Example 1: herbicidal activity, application before weed generation in submerged conditions (symbol B); details: application herbicide amount 320 g/ha
In short: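 Scores run 0 to 5 by herbicidal ratio, with 5 meaning 90% or more and 0 meaning 5% or lower, read 3 weeks after treatment. Compound was applied as a diluted emulsion to the water surface of submerged alluvial-soil pots on the day weed seeds were sown.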

Galium spurium [12] = assay: Test Example 4: herbicidal effect by soil treatment (symbol Q); details: application herbicide amount 320 g/ha
In short: as §4

Alopecurus myosuroides [13] = assay: Test Example 4: herbicidal effect by soil treatment (symbol J); details: application herbicide amount 320 g/ha
In short: as §4

Lolium multiflorum Lam. = assay: Test Example 4: herbicidal effect by soil treatment (symbol K); details: application herbicide amount 320 g/ha
In short: as §4

rice plant = assay: Test Example 5: effect on crop by foliage application, plastic box (symbol b); details: 320 g/ha, 3 weeks after application
In short: as §2

Digitaria ciliaris = assay: Test Example 5: herbicidal effect by foliage application, plastic box (symbol F); details: 320 g/ha, 3 weeks after application
In short: as §3

CON=C(C)CC1CC(OC(=O)N2CCOCC2)=C(c2c(C)cc(-c3ccc(Cl)cc3)cc2C)C1=O (mixture of isomers) [6-062]
d: soybean, effect on crop grade (soybean [1]): 0 (Herbicidal ratio of 5% or lower (almost no effect))
e: wheat, effect on crop (criteria of Test Example 1) (wheat [2]): 5 (Herbicidal ratio of 90% or more (almost completely withered))
J: Alopecurus myosuroides, herbicidal effect (criteria of Test Example 1) (Alopecurus myosuroides [3]): 5 (Herbicidal ratio of 90% or more (almost completely withered))
I: Avena fatua, herbicidal effect grade (Avena fatua): 0 (Herbicidal ratio of 5% or lower (almost no effect))
G: Setaria viridis, herbicidal effect grade (Setaria viridis [4]): 5 (Herbicidal ratio of 90% or more (almost completely withered))
Q: Galium spurium, herbicidal effect (criteria of Test Example 1) (Galium spurium [5]): 5 (Herbicidal ratio of 90% or more (almost completely withered))
c: corn, effect on crop grade (corn): 0 (Herbicidal ratio of 5% or lower (almost no effect))
G: Setaria viridis, herbicidal effect (criteria of Test Example 1) (Setaria viridis [6]): 5 (Herbicidal ratio of 90% or more (almost completely withered))
e: wheat, effect on crop grade (wheat [7]): 0 (Herbicidal ratio of 5% or lower (almost no effect))
P: Stellaria media, herbicidal effect grade (Stellaria media): 3 (Herbicidal ratio of 40% or higher and lower than 70%)
M: Abutilon theophrasti, herbicidal effect grade (Abutilon theophrasti): 0 (Herbicidal ratio of 5% or lower (almost no effect))
N: Amaranthus retroflexus, herbicidal effect (criteria of Test Example 1) (Amaranthus retroflexus [8]): 1 (Herbicidal ratio of 5% or higher and lower than 20%)
H: Echinochloa crus-galli var. crus-galli, herbicidal effect (criteria of Test Example 1) [9]: 5 (Herbicidal ratio of 90% or more (almost completely withered))
N: Amaranthus retroflexus, herbicidal effect grade (Amaranthus retroflexus [10]): 0 (Herbicidal ratio of 5% or lower (almost no effect))
d: soybean, effect on crop (criteria of Test Example 1) (soybean [11]): 0 (Herbicidal ratio of 5% or lower (almost no effect))
b: directly sowed rice plant, effect on crop grade (rice): 0 (Herbicidal ratio of 5% or lower (almost no effect))
Herbicidal effect grade, B: Scirpus juncoides (Scirpus juncoides): 4 (Herbicidal ratio of 70% or higher and lower than 90%)
Q: Galium spurium, herbicidal effect grade (Galium spurium [12]): 0 (Herbicidal ratio of 5% or lower (almost no effect))
J: Alopecurus myosuroides, herbicidal effect grade (Alopecurus myosuroides [13]): 4 (Herbicidal ratio of 70% or higher and lower than 90%)
K: Lolium multiflorum Lam., herbicidal effect grade (Lolium multiflorum Lam.): 0 (Herbicidal ratio of 5% or lower (almost no effect))
b: directly sowed rice plant, effect on crop (criteria of Test Example 1) (rice plant): 5 (Herbicidal ratio of 90% or more (almost completely withered))
F: Digitaria ciliaris, herbicidal effect (criteria of Test Example 1) (Digitaria ciliaris): 5 (Herbicidal ratio of 90% or more (almost completely withered))

CON=C(C)CC1CC(OC(=O)N(C)C)=C(c2c(C)cc(-c3ccc(Cl)cc3)cc2C)C1=O (mixture of isomers) [6-063]
d: soybean, effect on crop grade (soybean [1]): 0 (Herbicidal ratio of 5% or lower (almost no effect))
e: wheat, effect on crop (criteria of Test Example 1) (wheat [2]): 4 (Herbicidal ratio of 70% or higher and lower than 90%)
J: Alopecurus myosuroides, herbicidal effect (criteria of Test Example 1) (Alopecurus myosuroides [3]): 3 (Herbicidal ratio of 40% or higher and lower than 70%)
I: Avena fatua, herbicidal effect grade (Avena fatua): 0 (Herbicidal ratio of 5% or lower (almost no effect))
G: Setaria viridis, herbicidal effect grade (Setaria viridis [4]): 1 (Herbicidal ratio of 5% or higher and lower than 20%)
Q: Galium spurium, herbicidal effect (criteria of Test Example 1) (Galium spurium [5]): 3 (Herbicidal ratio of 40% or higher and lower than 70%)
c: corn, effect on crop grade (corn): 0 (Herbicidal ratio of 5% or lower (almost no effect))
G: Setaria viridis, herbicidal effect (criteria of Test Example 1) (Setaria viridis [6]): 5 (Herbicidal ratio of 90% or more (almost completely withered))
e: wheat, effect on crop grade (wheat [7]): 0 (Herbicidal ratio of 5% or lower (almost no effect))
P: Stellaria media, herbicidal effect grade (Stellaria media): 0 (Herbicidal ratio of 5% or lower (almost no effect))
M: Abutilon theophrasti, herbicidal effect grade (Abutilon theophrasti): 0 (Herbicidal ratio of 5% or lower (almost no effect))
N: Amaranthus retroflexus, herbicidal effect (criteria of Test Example 1) (Amaranthus retroflexus [8]): 0 (Herbicidal ratio of 5% or lower (almost no effect))
H: Echinochloa crus-galli var. crus-galli, herbicidal effect (criteria of Test Example 1) [9]: 5 (Herbicidal ratio of 90% or more (almost completely withered))
N: Amaranthus retroflexus, herbicidal effect grade (Amaranthus retroflexus [10]): 0 (Herbicidal ratio of 5% or lower (almost no effect))
d: soybean, effect on crop (criteria of Test Example 1) (soybean [11]): 0 (Herbicidal ratio of 5% or lower (almost no effect))
b: directly sowed rice plant, effect on crop grade (rice): 0 (Herbicidal ratio of 5% or lower (almost no effect))
Herbicidal effect grade, B: Scirpus juncoides (Scirpus juncoides): 2 (Herbicidal ratio of 20% or higher and lower than 40%)
Q: Galium spurium, herbicidal effect grade (Galium spurium [12]): 0 (Herbicidal ratio of 5% or lower (almost no effect))
J: Alopecurus myosuroides, herbicidal effect grade (Alopecurus myosuroides [13]): 0 (Herbicidal ratio of 5% or lower (almost no effect))
K: Lolium multiflorum Lam., herbicidal effect grade (Lolium multiflorum Lam.): 0 (Herbicidal ratio of 5% or lower (almost no effect))
b: directly sowed rice plant, effect on crop (criteria of Test Example 1) (rice plant): 3 (Herbicidal ratio of 40% or higher and lower than 70%)
F: Digitaria ciliaris, herbicidal effect (criteria of Test Example 1) (Digitaria ciliaris): 5 (Herbicidal ratio of 90% or more (almost completely withered))

CON=C(C)C(C(C)=NOC)C1CC(O)=C(c2c(C)cc(C)cc2C)C1=O (stereo not drawn) [1-021]
d (soybean) effect on crop grade (soybean [1]): 0 (Herbicidal ratio of 5% or lower (almost no effect))
e: wheat, effect on crop grade (wheat [2]): 0 (Herbicidal ratio of 5% or lower (almost no effect))
J: Alopecurus myosuroides, herbicidal effect grade (Alopecurus myosuroides [3]): 3 (Herbicidal ratio of 40% or higher and lower than 70%)
I (Avena fatua) herbicidal effect grade (Avena fatua): 0 (Herbicidal ratio of 5% or lower (almost no effect))
G (Setaria viridis) herbicidal effect grade (Setaria viridis [4]): 0 (Herbicidal ratio of 5% or lower (almost no effect))
Q: Galium spurium, herbicidal effect grade (Galium spurium [5]): 0 (Herbicidal ratio of 5% or lower (almost no effect))
c (corn) effect on crop grade (corn): 0 (Herbicidal ratio of 5% or lower (almost no effect))
G: Setaria viridis, herbicidal effect grade (Setaria viridis [6]): 1 (Herbicidal ratio of 5% or higher and lower than 20%)
e (wheat) effect on crop grade (wheat [7]): 0 (Herbicidal ratio of 5% or lower (almost no effect))
P (Stellaria media) herbicidal effect grade (Stellaria media): 0 (Herbicidal ratio of 5% or lower (almost no effect))
M (Abutilon theophrasti) herbicidal effect grade (Abutilon theophrasti): 0 (Herbicidal ratio of 5% or lower (almost no effect))
N: Amaranthus retroflexus, herbicidal effect grade (Amaranthus retroflexus [8]): 0 (Herbicidal ratio of 5% or lower (almost no effect))
H: Echinochloa crus-galli var. crus-galli, herbicidal effect grade [9]: 3 (Herbicidal ratio of 40% or higher and lower than 70%)
N (Amaranthus retroflexus) herbicidal effect grade (Amaranthus retroflexus [10]): 0 (Herbicidal ratio of 5% or lower (almost no effect))
d: soybean, effect on crop grade (soybean [11]): 0 (Herbicidal ratio of 5% or lower (almost no effect))
b (directly sowed rice plant) effect on crop grade (rice): 2 (Herbicidal ratio of 20% or higher and lower than 40%)
Herbicidal effect grade, B: Scirpus juncoides (Scirpus juncoides): 0 (Herbicidal ratio of 5% or lower (almost no effect))
Q (Galium spurium) herbicidal effect grade (Galium spurium [12]): 0 (Herbicidal ratio of 5% or lower (almost no effect))
J (Alopecurus myosuroides) herbicidal effect grade (Alopecurus myosuroides [13]): 0 (Herbicidal ratio of 5% or lower (almost no effect))
K (Lolium multiflorum Lam.) herbicidal effect grade (Lolium multiflorum Lam.): 2 (Herbicidal ratio of 20% or higher and lower than 40%)
b: directly sowed rice plant, effect on crop grade (rice plant): 3 (Herbicidal ratio of 40% or higher and lower than 70%)
F: Digitaria ciliaris, herbicidal effect grade (Digitaria ciliaris): 1 (Herbicidal ratio of 5% or higher and lower than 20%)
